Laboratory results: patent US20180209956A1, “HTS Assay for Identifying Small Molecule Inhibitors of RAD52 and Uses of Identified Small Molecule Inhibitors for Treatment and Prevention of BRCA-Deficient Malignancies” (University of Iowa Research Foundation, priority 2015, published 2018)
Where a name gives a salt, the structure may show the parent alone. Each block holds one molecule with its values, some of them ahead of it.

Legend:
[1] = target: T1, RAD52 (Homo sapiens, UniProt P43351); details: cited from earlier work
T1 sequence (P43351 1-418): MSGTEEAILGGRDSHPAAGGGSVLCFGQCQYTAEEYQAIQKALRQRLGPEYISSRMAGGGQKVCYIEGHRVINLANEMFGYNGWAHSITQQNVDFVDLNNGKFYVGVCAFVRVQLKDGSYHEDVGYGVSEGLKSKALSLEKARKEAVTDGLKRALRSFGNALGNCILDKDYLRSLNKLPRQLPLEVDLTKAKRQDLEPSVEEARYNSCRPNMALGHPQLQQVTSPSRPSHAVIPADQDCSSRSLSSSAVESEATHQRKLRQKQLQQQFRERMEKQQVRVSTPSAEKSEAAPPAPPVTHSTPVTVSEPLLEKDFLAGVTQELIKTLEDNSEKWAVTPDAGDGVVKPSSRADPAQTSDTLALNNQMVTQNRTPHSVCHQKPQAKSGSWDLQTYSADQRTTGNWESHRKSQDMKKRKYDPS

[2] = target: T2, RAD52-ssDNA interaction (Homo sapiens, UniProt P43351); assay: FRET-based ssDNA binding and wrapping assay (RAD52-Cy3-dT30-Cy5 complex); details: for FRET value at saturation / IC50: Table 1; for IC50: ssDNA, 1 nM Cy3-dT30-Cy5, 8 nM RAD52, read-out: IC50 (DNA binding); for IC50 range for ssDNA binding and wrapping, in words: summary of Table 1
T2 construct: made in house
T2 sequence (P43351 1-418): T1 sequence (P43351 1-418)
Description: We titrated increasing amounts of each compound into a cuvette containing preformed stoichiometric RAD52-Cy3-dT30-Cy5 complexes (1 nM Cy3-dT30-Cy5 and 8 nM RAD52). […] At each concentration of the compound, the FRET signal was adjusted for the change in Cy3 and Cy5 fluorescence in the presence of the compound, but in the absence of protein.
(§1) FRET-based DNA binding and annealing assays: FRET-based ssDNA binding, dsDNA binding, and annealing assays were carried out as previously described (Grimme et al., 2010, Grimme and Spies, 2011) using Cary Eclipse spectrofluorimeter (Varian) at 25° C. in buffer containing 30 mM Tris-Acetate pH7.5, 1 mM DTT, and 0.1 mg/mL BSA. Cy3 dye was excited at 530 nm and its emission was monitored at 565 nm. Emission of Cy5 acceptor fluorophore excited through the energy transfer from Cy3 donor is monitored at 660 nm simultaneously with emission of Cy3 dye. Both the excitation and the emission slit widths were set to 10 nm.
All experiments were performed in triplicates, and the data are shown as averages and standard deviations for three independent measurements. To remove possible experimental artifacts associated with chromogenic or fluorogenic compounds, as well as with the compounds that may quench or enhance Cy3 or Cy5 fluorescence, we also performed control titrations whereby we titrated each compound into 1 nM Cy3-dT30-Cy5 in the absence of RAD52. For each compound concentration we subtracted the difference in the FRET signal in the presence and absence of the compound from the respective FRET signal in the presence of RAD52. The FRET signal corrected for the compound fluorescence was calculated using the equation: […]
as previously described (Grimme et al., 2010, Grimme and Spies, 2011) and plotted as a function of compound concentration and fitted to the following inhibition model”
where FRET0 is the initial FRET value of RAD52-ssDNA complex in the absence of the compound and FRETmin is the FRET value at complete inhibition. FRET values were calculated as an average of three or more independent annealing reactions plotted against the concentration of the compound. Inhibition of the RAD52-dsDNA interaction was assayed in a similar experiment, except the stoichiometric complexes containing 1 nM molecules of Cy3-Oligo28-Cy5 duplex DNA and 10 nM RAD52. […] In all experiments, the FRET values for each data point were corrected for the effects of the compounds on the respective substrate in the absence of RAD52.

[3] = target: T3, RAD52-mediated ssDNA annealing (Homo sapiens, UniProt P43351); assay: FRET-based RAD52-mediated ssDNA annealing assay; format: biochemical; details: Table 1, read-out: IC50 Annealing Extent
T3 construct: made in house
T3 sequence (P43351 1-418): T1 sequence (P43351 1-418)
Text: These assays utilize two complementary single stranded 28-nucleotide-long substrates, which contain either Cy3 (T-28) or Cy5 (P-28) incorporated into the middle of the respective DNA strand. When the substrates are annealed by RAD52, the Cy3 and Cy5 dyes are separated by 3 base pairs and yield a high FRET signal (FIG. 2 Supplement 2). […] The annealing reactions were initiated by mixing two half reactions and observing the change in FRET over time in the presence of varying concentrations of small molecules. An increasing FRET value over time indicates formation of the dsDNA duplex which brings the two dyes in close proximity (FIG. 2 Supplement 2). Fitting the annealing data to a double exponential allowed us to calculate and compare the final extent of annealing at varying concentrations of each compound compared to RAD52 alone. We plotted the final extent of annealing vs the concentration of the compound and calculated an IC50 of annealing inhibition.
Annealing of complementary oligonucleotides by RAD52 was monitored under identical conditions as the binding assays described above. For each assay, the reaction master mixture containing 8 nM RAD52 protein in the presence and absence of the compounds at varying concentrations was prepared at room temperature and divided into two half reactions. Following baseline buffer and protein measurements, 0.5 nM of T-28 ssDNA substrate was added to the reaction cuvette and the signal was allowed to stabilize. The annealing reaction was initiated upon addition of the second half-reaction pre-incubated with 0.5 nM P-28 ssDNA substrate. The fluorescence of Cy3 and Cy5 were measured simultaneously over the reaction time course (500 s). FRETapp values were calculated as an average of three or more independent annealing reactions plotted against time (s). The average FRET values were fitted to a double exponential to calculate the final extent of annealing using Graphpad Prism4 software. The calculated annealing extent was plotted as a function of compound concentration and fitted to the same model as we used to determine IC50 values for the inhibition of DNA annealing.

[4] = Solubility observed during testing; format: physicochemical
[5] = target: T4, RAD52 (Homo sapiens, UniProt P43351 P43351:1-418); assay: competition; 10 nM poly(dT)-100 fully inhibits wrapped RAD52-Cy3-dT30-Cy5 complex (100 nM RAD52, 15 nM dT30); 20 mM Hepes pH 7.5, 1 mM DTT, 0.1 mg/mL BSA; details: tags: 6xHis; chain copies: heptameric ring per 30-mer ssDNA (stated)
T4 sequence: T1 sequence (P43351 1-418)

[6] = target: T4, RAD52; assay: method FRET; stoichiometric wrapped complex at about 8 nM RAD52 with 1 nM ssDNA; 30 mM Tris-acetate pH 7.5, 1 mM DTT, 0.1 mg/mL BSA, 25 C; also bound when ssDNA is RPA-coated (FRET about 0.63); details: tags: 6xHis; chain copies: heptameric ring per 30-mer ssDNA (stated); label: Cy3 and Cy5 at the ends
Description: as §1

[7] = target: RPA (RPA70/RPA35/RPA14 heterotrimer) (UniProt P27694;P15927;P35244 P27694:1-616,P15927:1-270,P35244:1-121); assay: FRET; 1:1 stoichiometric complex, FRET about 0.3 vs about 0.48 for free ssDNA; 30 mM Tris-acetate pH 7.5, 25 C; details: tags: untagged; label: Cy3 and Cy5 at the ends
RPA (RPA70/RPA35/RPA14 heterotrimer), sequence (P27694 whole entry, chain 1 of 3): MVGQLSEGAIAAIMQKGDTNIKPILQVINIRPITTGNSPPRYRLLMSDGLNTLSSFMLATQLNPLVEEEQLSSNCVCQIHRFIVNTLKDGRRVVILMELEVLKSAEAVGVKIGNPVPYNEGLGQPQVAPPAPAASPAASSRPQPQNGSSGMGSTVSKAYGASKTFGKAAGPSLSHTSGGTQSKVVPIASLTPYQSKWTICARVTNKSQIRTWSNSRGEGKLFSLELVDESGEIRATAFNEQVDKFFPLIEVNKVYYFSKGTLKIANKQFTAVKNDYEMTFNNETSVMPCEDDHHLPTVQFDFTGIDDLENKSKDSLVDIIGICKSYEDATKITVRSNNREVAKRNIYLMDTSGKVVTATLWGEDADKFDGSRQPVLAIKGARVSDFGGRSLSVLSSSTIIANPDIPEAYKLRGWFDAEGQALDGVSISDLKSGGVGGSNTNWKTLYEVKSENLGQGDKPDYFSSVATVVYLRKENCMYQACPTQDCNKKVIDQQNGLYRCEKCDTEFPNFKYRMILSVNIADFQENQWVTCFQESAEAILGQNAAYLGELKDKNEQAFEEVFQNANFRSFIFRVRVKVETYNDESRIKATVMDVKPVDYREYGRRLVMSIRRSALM
RPA (RPA70/RPA35/RPA14 heterotrimer), sequence (P15927 whole entry, chain 2 of 3): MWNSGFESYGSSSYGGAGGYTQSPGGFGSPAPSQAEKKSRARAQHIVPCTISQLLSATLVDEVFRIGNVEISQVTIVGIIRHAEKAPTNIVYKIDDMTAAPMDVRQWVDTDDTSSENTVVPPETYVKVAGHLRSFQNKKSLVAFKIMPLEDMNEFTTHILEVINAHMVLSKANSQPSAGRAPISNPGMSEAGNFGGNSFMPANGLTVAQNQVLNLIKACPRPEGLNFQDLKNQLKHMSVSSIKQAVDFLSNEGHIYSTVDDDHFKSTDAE
RPA (RPA70/RPA35/RPA14 heterotrimer), sequence (P35244 whole entry, chain 3 of 3): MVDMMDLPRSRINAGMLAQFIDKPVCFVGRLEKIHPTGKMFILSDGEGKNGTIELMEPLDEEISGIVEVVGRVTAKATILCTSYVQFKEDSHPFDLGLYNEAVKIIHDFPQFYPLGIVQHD

Molecule: NC(Cc1cc(O)c(O)cc1O)C(=O)O (racemic) [6-hydroxy-DL-dopa]
Effect on supramolecular assembly of RAD52 [1]: disrupts supramolecular assembly of the RAD52 protein

FRET value at saturation [2]: 0.47 ± 0.01
IC50 [2]: 2 ± 0.17 µM
IC50 range for ssDNA binding and wrapping, in words [2]: micro-molar range
IC50 [3]: 3.8 ± 0.2 µM
Molecule: C=C1c2cccc(O)c2C(=O)C2=C(O)[C@]3(O)C(=O)C(C(N)=O)=C(O)[C@@H](N(C)C)[C@@H]3[C@@H](O)[C@H]12 [Compound 3, Methacycline Hydrochloride, reference compound]

Molecule: O=C(O[C@@H]1Cc2c(O)cc(O)cc2O[C@@H]1c1ccc(O)c(O)c1)c1cc(O)c(O)c(O)c1 [Compound 5, (−)-Epicatechin gallate]
FRET value at saturation [2]: 0.41 ± 0.004
IC50 [2]: 0.255 ± 0.016 µM
IC50 range for ssDNA binding and wrapping, in words [2]: nano-molar range
IC50 [3]: 20 ± 0.7 µM

FRET value at saturation [2]: 0.51 ± 0.01
IC50 [2]: 0.563 ± 0.04 µM
IC50 range for ssDNA binding and wrapping, in words [2]: nano-molar range
IC50 [3]: 5.6 ± 0.6 µM
Molecule: O=C1c2ccc(O)c(O)c2C(=O)c2c(O)ccc(O)c21 [Compound 15, Quinalizarin]

Molecule: O=c1c(O)c(-c2ccc(O)c(O)c2)oc2c(O)c(O)cc(O)c12 [Compound 19, Gossypetin]
FRET value at saturation [2]: 0.49 ± 0.01
IC50 [2]: 0.913 ± 0.058 µM
IC50 range for ssDNA binding and wrapping, in words [2]: nano-molar range
IC50 [3]: 6 ± 2.3 µM

Molecule: O=c1c2ccccc2nc(CSc2ncnc3[nH]cnc23)n1-c1cccc(C(F)(F)F)c1 [Compound R27, 2-[(9H-purin-6-ylthio)methyl]-3-[3-(trifluoromethyl)phenyl]-4(3H)-qhinazolinone]
Solubility ([4]; 30 mM Tris-Acetate pH 7.5, 1 mM DTT at 115 μM): Insoluble in 30 mM Tris-Acetate pH 7.5, 1 mM DTT at 115 μM

Molecule: CCOc1cc(C(Nc2cc(C)ccn2)c2ccc3ccc(C)nc3c2O)ccc1OC (centres unmarked) [Compound R28, 7-{(3-ethoxy-4-methyoxyphenyl)[(4-methyl-2-pyridinyl)amino]methyl}-2-methyl-8-quinolinol]
Solubility ([4]; 30 mM Tris-Acetate pH 7.5, 1 mM DTT at 10 μM): Insoluble in 30 mM Tris-Acetate pH 7.5, 1 mM DTT at 10 μM

Solubility ([4]; DMSO at 25 mM): Compound is insoluble in DMSO at 25 mM
Molecule: CCOc1ccccc1NC(=O)c1c(NC(=O)Cc2ccc(OC)cc2)sc2c1CCC2 [Compound R29, N-(2-ethoxyphenyl)-2-{[(4-methoxyphenyl)acetyl]amino)-5,6-dihydro-4H-cyclopenta[b]thiophene-3-carboxamide]

IC50 [2]: > 800 µM
IC50 range for ssDNA binding and wrapping, in words [2]: high micro-molar range
IC50 [3]: > 100 µM
Molecule: Asiatic Acid [Compound 18]

B1: Poly dT100 (ssDNA)
DNA: TTTTTTTTTTTTTTTTTTTTTTTTTTTTTTTTTTTTTTTTTTTTTTTTTTTTTTTTTTTTTTTTTTTTTTTTTTTTTTTTTTTTTTTTTTTTTTTTTTTT
modifications: [none]
binding result [5]: binds

Molecule: TTTTTTTTTTTTTTTTTTTTTTTTTTTTTT (ssDNA) [Cy3-dT30-Cy5]
binding result [6]: binds
binding result [7]: binds
